Results on one compound are retold here after publication PMC6934184, “Selective DNA-PKcs inhibition extends the therapeutic index of localized radiotherapy and chemotherapy” (The Journal of Clinical Investigation, 2019).

For the test, the target named is T1, ADRBK2 (GRK3) (Homo sapiens, UniProt P35626).
T1 construct: purchased Thermo Fisher Scientific (Life Technologies) SelectScreen
The test can be described thus: SelectScreen Z'LYTE. Format: biochemical. A digest of the protocol:
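Compound tested in SelectScreen activity assays, Z'LYTE for CSF1R, CDK1/cyclin B and MAP2K6 and Adapta for CAMK1. ATP for CAMK1 was listed as 10, and Km app was used for CSF1R. Results are expressed in percent.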

T1 sequence (P35626 whole entry): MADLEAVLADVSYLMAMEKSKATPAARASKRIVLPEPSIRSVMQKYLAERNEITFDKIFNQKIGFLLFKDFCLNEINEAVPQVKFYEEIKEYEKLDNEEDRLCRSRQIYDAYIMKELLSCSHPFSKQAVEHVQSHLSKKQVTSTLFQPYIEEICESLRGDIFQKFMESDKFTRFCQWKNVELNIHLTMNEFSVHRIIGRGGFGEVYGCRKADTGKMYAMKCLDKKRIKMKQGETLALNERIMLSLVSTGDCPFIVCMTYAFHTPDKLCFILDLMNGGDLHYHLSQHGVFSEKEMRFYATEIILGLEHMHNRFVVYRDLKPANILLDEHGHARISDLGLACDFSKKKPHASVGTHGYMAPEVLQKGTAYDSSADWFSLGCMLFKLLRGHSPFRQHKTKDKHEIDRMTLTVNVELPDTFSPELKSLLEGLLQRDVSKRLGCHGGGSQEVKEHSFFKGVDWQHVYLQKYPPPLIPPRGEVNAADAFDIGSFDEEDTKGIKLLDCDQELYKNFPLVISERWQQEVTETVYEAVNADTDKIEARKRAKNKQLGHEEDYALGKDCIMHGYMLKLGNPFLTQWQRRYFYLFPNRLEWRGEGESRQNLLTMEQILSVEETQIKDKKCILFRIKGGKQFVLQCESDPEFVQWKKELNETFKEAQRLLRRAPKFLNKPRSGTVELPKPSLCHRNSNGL

In the case of `CN(C(=O)CN1CCOCC1)c1ccc2sc3c(-c4cccc5c(=O)cc(N6CC7CCC(C6)O7)oc45)cccc3c2c1` [NU5455], the inhibition (in general, the relative decrease from the control value, in per cent) at 1 µM turned out to be 2.8%.
